Values quoted from earlier work, collected in patent US7498301B2, “Composition containing dipeptide of histidine and alanine for reducing uric acid and method for reducing uric acid using the dipeptide” (Lytone Enterprise, Inc., priority 2003, dated 2009).

What was measured:
[1] = test system: peptidase and proteases excreted from pancreas or other digestive organs
[2] = low pH (<3.0)

SMILES: NCCC(=O)N[C@@H](Cc1cnc[nH]1)C(=O)O [carnosine, β-alanyl-L-histidine]
- Digestion by peptidase and proteases [1]: resist against digestion
- Stability under low pH [2]: remain intact
